Laboratory results reported in US9113629B2, “4-amino-6-(4-substituted-phenyl)-picolinates and 6-amino-2-(4-substituted-phenyl)-pyrimidine-4-carboxylates and their use as herbicides” (DOW AGROSCIENCES LLC, priority 2013, dated 2015).
Read-outs that look alike come from different tables or passages of the source.

Tests used:
[1] = test system: Key Broadleaf Weed and Crop Species; test: Post-emergent Test II herbicidal activity (Table 5); format: in vivo; conditions: post-emergence, 336 h, post-emergent, 14 days after application; for pest or weed control at 70 g/ha: 70 g ai/ha; for pest or weed control at 140 g/ha: 140 g ai/ha
How it was run: (§1)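 Test species were raised 7–21 d under greenhouse conditions until reaching the first or second true leaf, sprayed with formulated compound at 187 L/ha, and kept subirrigated to avoid wash-off. Fourteen days later, damage was rated visually on a 0–100% scale against untreated plants.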

[2] = test system: Key Grass and Sedge Weeds as well as Grass Crops; test: Post-emergent Test II herbicidal activity (Table 6); format: in vivo; conditions: post-emergence, 336 h; for pest or weed control at 70 g/ha: application rate 70 g ai/ha; for pest or weed control at 140 g/ha: application rate 140 g ai/ha
How it was run: as §1

[3] = ABUTH: velvetleaf (Abutilon theophrasti), read-out: Visual Growth Reduction (%) 14 Days After Application ABUTH
[4] = AMARE: redroot pigweed (Amaranthus retroflexus), read-out: Visual Growth Reduction (%) 14 Days After Application AMARE
[5] = BRSNN: oilseed-rape, canola (Brassica napus), read-out: Visual Growth Reduction (%) 14 Days After Application BRSNN
[6] = CHEAL: lambsquarters (Chenopodium album), read-out: Visual Growth Reduction (%) 14 Days After Application CHEAL
[7] = EPHHL: wild poinsettia (Euphorbia heterophylla), read-out: Visual Growth Reduction (%) 14 Days After Application EPHHL
[8] = HELAN: sunflower (Helianthus annuus), read-out: Visual Growth Reduction (%) 14 Days After Application HELAN
[9] = VIOTR: wild pansy (Viola tricolor), read-out: Visual Growth Reduction (%) 14 Days After Application VIOTR
[10] = Triticum aestivum, TRZSS (wheat), read-out: Visual Growth Reduction (%) 14 Days After Application, TRZSS
[11] = CYPES: yellow nutsedge (Cyperus esculentus), read-out: Visual Growth Reduction (%) 14 Days After Application, CYPES
[12] = DIGSA: crabgrass (Digitaria sanguinalis), read-out: Visual Growth Reduction (%) 14 Days After Application, DIGSA
[13] = ECHCG: barnyardgrass (Echinochloa crus-galli), read-out: Visual Growth Reduction (%) 14 Days After Application, ECHCG
[14] = ORYSA: rice (Oryza sativa), read-out: Visual Growth Reduction (%) 14 Days After Application, ORYSA
[15] = SETFA: giant foxtail (Setaria faberi), read-out: Visual Growth Reduction (%) 14 Days After Application, SETFA
[16] = SORVU: grain sorghum (Sorghum vulgare), read-out: Visual Growth Reduction (%) 14 Days After Application, SORVU
[17] = ZEAMX: maize, corn (Zea mays), read-out: Visual Growth Reduction (%) 14 Days After Application, ZEAMX

In the case of `COC(=O)c1nc(-c2ccc(I)cc2)c(C)c(N)c1Cl` [Compound 136, methyl 4-amino-3-chloro-6-(4-iodophenyl)-5-methylpicolinate], the pest or weed control at 70 g/ha [1, 3] is reported as 95 to 100%, the pest or weed control at 140 g/ha [1, 3] is reported as 95 to 100% and the pest or weed control at 70 g/ha [1, 4] is reported as 85 to 94%. For the same compound, the pest or weed control at 140 g/ha [1, 4] was 85 to 94%, the pest or weed control at 70 g/ha [1, 5] was 85 to 94% and the pest or weed control at 140 g/ha [1, 5] was 85 to 94%. It also gave a pest or weed control at 70 g/ha [1, 6] of 95 to 100%, a pest or weed control at 140 g/ha [1, 6] of 95 to 100% and a pest or weed control at 70 g/ha [1, 7] of 0 to 29%. It also gave a pest or weed control at 140 g/ha [1, 7] of 0 to 29%, a pest or weed control at 70 g/ha [1, 8] of 95 to 100% and a pest or weed control at 140 g/ha [1, 8] of 95 to 100%. For the same compound, the pest or weed control at 70 g/ha [1, 9] was 0 to 29%, the pest or weed control at 140 g/ha [1, 9] was 0 to 29% and the pest or weed control at 70 g/ha [2, 10] was 45 to 59%. For the same compound, the pest or weed control at 140 g/ha [2, 10] was 45 to 59%, the pest or weed control at 70 g/ha [2, 11] was 95 to 100% and the pest or weed control at 140 g/ha [2, 11] was 95 to 100%. It also gave a pest or weed control at 70 g/ha [2, 12] of 60 to 74%, a pest or weed control at 140 g/ha [2, 12] of 60 to 74% and a pest or weed control at 70 g/ha [2, 13] of 0 to 29%. The pest or weed control at 140 g/ha [2, 13] was 0 to 29%, the pest or weed control at 70 g/ha [2, 14] was 0 to 29% and the pest or weed control at 140 g/ha [2, 14] was 0 to 29%. The pest or weed control at 70 g/ha [2, 15] was 30 to 44%, the pest or weed control at 140 g/ha [2, 15] was 45 to 59% and the pest or weed control at 70 g/ha [2, 16] was 60 to 74%. It also gave a pest or weed control at 140 g/ha [2, 16] of 60 to 74%, a pest or weed control at 70 g/ha [2, 17] of 60 to 74% and a pest or weed control at 140 g/ha [2, 17] of 75 to 84%.
